Laboratory results from ChEMBL document CHEMBL5030558, “Optimization and Evaluation of Novel Antifungal Agents for the Treatment of Fungal Infection” (J Med Chem, 2021).
pIC50: −log10 of the molar value. Activity calls are given as the source filed them. No cut-off for these calls is given here.

How the values were obtained:
Cryptococcus neoformans [1] = test: Induction of morphological changes in Cryptococcus neoformans H99 assessed as cell wall damage at 4 to 8 ug/ml incubated for 24 hrs by TEM analysis; format: functional, organism-based; conditions: dose 4-8 µg/ml
Trichophyton rubrum [2] = test: Fungicidal activity against Trichophyton rubrum KCCM60450 at 2 times MIC after 8 hrs by time-kill kinetics assay; format: functional, organism-based
[3] = AUC(0 to t) in dog at 10 mg/kg, po; format: ADME, organism-based, Canis lupus familiaris; parameters: dose 10 mg/kg; conditions: in vivo
Nakaseomyces glabratus = test: Antifungal activity against Candida glabrata BG2 assessed as reduction in fungal growth incubated for 48 hrs by CLSI based broth microdilution method; format: functional
Trichophyton rubrum [4] = test: Ex vivo antifungal activity against Trichophyton rubrum KCCM60450 infected in human nail assessed as reduction in ATP level at 0.1 % w/w after 24 hrs; format: functional; parameters: scale not given: the % may be the effect or the level left
Aspergillus fumigatus = test: Synergistic antifungal activity against Aspergillus fumigatus AF293 assessed as FICI in presence of ICZ after 48 hrs by checker board assay; format: functional, organism-based
Cryptococcus neoformans [5] = test: Additive antifungal activity against Cryptococcus neoformans H99 assessed as FICI in presence of FCZ after 48 hrs by checker board assay; format: functional, organism-based
Cryptococcus neoformans [6] = test: Induction of morphological changes in Cryptococcus neoformans H99 assessed as reduction in capsule thickness at 4 ug/ml incubated for 24 hrs by TEM analysis; format: functional, organism-based; conditions: dose 4.0 µg/ml
Trichophyton rubrum [7] = test: Ex vivo antifungal activity against Trichophyton rubrum KCCM60450 infected in human nail assessed as reduction in ATP level at 1 % w/w after 24 hrs; format: functional; parameters: scale not given: the % may be the effect or the level left
[8] = target: Voltage-gated inwardly rectifying potassium channel KCNH2 (Homo sapiens, UniProt Q12809); test: Inhibition of human ERG by patch clamp assay
Voltage-gated inwardly rectifying potassium channel KCNH2, sequence (Q12809 whole entry): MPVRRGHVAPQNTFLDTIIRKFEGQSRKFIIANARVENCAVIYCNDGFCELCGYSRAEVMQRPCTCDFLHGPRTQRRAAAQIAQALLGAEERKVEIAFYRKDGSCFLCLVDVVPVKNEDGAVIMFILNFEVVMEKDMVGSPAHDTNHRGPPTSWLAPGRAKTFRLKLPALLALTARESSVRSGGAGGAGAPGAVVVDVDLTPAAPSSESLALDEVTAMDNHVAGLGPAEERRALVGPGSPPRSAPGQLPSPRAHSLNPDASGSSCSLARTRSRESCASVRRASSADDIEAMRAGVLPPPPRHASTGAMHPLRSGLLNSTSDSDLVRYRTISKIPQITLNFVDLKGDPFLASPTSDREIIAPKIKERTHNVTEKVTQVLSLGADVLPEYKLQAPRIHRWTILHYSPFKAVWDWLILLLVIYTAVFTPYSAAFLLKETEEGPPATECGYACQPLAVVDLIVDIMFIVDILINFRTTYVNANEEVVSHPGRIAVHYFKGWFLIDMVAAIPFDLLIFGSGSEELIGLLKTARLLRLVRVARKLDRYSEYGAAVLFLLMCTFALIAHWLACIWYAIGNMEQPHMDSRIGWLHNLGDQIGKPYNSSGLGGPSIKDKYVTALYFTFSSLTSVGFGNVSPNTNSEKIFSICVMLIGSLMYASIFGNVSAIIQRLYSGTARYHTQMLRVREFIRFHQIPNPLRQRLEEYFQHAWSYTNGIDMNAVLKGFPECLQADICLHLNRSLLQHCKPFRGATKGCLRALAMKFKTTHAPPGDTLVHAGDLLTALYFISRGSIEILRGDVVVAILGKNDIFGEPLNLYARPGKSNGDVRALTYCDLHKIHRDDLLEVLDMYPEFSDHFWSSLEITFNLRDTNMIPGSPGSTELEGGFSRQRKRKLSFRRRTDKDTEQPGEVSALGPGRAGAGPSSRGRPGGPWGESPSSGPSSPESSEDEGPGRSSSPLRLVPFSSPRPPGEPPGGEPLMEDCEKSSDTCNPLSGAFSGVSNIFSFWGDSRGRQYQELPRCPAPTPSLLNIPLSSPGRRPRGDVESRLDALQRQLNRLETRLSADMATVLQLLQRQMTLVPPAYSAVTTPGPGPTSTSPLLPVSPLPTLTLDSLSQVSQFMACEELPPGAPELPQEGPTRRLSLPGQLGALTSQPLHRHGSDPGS

HEK293 = test: Cytotoxicity against human HEK293 cells upto 12.5 uM incubated for 24 hrs; format: cell-based; conditions: hek293, 24 h
[Candida] auris [9] = Synergistic antifungal activity against Candida auris B8841 assessed as FICI in presence of AmB after 48 hrs by checker board assay; format: functional, organism-based; conditions: Candidozyma auris
[10] = Cmax in Sprague-Dawley rat at 10 mg/kg, po; format: ADME, organism-based; parameters: route oral, dose 10 mg/kg; conditions: in vivo
Cryptococcus neoformans [11] = test: Synergistic antifungal activity against Cryptococcus neoformans H99 assessed as FICI in presence of AmB after 48 hrs by checker board assay; format: functional, organism-based
Candida albicans [12] = test: In vivo antifungal activity against Candida albicans 90028 infected in BALB/c mouse assessed as reduction in size of inflammation measured upto 48 hrs post infection; format: functional, organism-based; conditions: time hrs <=48
[13] = Cmax in dog at 1 mg/kg, iv; format: ADME, organism-based, Canis lupus familiaris; parameters: route intravenous, dose 1 mg/kg; conditions: in vivo
Cryptococcus neoformans [14] = test: Synergistic antifungal activity against Cryptococcus neoformans XW252 in presence of FK506 by checkboard assay; format: functional, organism-based
[15] = Cmax in Sprague-Dawley rat at 2 mg/kg, iv; format: ADME, organism-based; parameters: route intravenous, dose 2 mg/kg; conditions: in vivo
[16] = Effect on cell wall integrity in Cryptococcus neoformans H99 assessed as activation of Mpk1 by measuring increase in Mpk1 phosphorylation ratio at 8 ug/ml after 30 mins by immunoblot analysis (reference value: 1); format: functional; conditions: dose 8 µg/ml, 0.5 h
Cytochrome P450 2C9 = Cytochrome P450 2C9 (Homo sapiens, UniProt P11712); test: Inhibition of CYP2C9 (unknown origin) relative to control; format: ADME
Cytochrome P450 2C9, sequence (P11712 whole entry): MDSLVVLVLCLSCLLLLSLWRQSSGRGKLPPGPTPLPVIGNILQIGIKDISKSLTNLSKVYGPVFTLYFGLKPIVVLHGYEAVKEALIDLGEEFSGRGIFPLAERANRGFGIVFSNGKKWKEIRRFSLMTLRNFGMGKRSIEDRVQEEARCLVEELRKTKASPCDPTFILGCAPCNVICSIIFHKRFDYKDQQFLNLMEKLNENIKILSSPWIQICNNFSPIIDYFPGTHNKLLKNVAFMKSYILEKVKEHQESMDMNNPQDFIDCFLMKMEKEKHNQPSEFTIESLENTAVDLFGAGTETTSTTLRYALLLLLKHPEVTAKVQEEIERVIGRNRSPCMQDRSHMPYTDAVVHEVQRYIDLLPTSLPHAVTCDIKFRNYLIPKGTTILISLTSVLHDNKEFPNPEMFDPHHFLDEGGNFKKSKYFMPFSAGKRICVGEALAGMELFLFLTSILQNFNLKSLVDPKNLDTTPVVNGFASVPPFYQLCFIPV

CYP1A2 = target: T1, CYP1A2 (Homo sapiens, UniProt P05177); test: Inhibition of CYP1A2 (unknown origin) relative to control; format: ADME
T1 sequence (P05177 whole entry): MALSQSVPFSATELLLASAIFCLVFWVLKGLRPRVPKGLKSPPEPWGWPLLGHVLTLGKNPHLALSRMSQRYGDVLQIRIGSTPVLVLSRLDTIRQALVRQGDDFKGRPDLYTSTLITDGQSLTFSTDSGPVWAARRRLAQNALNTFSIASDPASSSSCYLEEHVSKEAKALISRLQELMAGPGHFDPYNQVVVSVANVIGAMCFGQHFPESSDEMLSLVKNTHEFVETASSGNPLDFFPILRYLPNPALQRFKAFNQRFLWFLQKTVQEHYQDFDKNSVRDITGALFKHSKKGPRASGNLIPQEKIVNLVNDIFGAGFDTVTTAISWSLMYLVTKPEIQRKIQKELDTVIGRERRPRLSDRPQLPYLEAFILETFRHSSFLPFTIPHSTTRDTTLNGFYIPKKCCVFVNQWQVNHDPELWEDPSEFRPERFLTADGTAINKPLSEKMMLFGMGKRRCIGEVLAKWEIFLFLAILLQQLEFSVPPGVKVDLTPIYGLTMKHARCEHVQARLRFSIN

[17] = Stability in dog hepatocytes assessed as parent compound remaining incubated for 60 mins; format: ADME, cell-based, Canis lupus familiaris, Hepatocyte; conditions: read-out: Stability
[Candida] auris [18] = Additive antifungal activity against Candida auris B8841 assessed as assessed as FICI in presence of CSP after 48 hrs by checker board assay; format: functional, organism-based; conditions: Candidozyma auris
HaCaT = test: Cytotoxicity against human HaCaT cells upto 12.5 uM incubated for 24 hrs; format: cell-based
Cryptococcus neoformans [19] = test: Fungicidal activity against Cryptococcus neoformans H99 at 8 times of MIC after 2 hrs by time-kill kinetics assay; format: functional, organism-based
Cryptococcus neoformans [20] = test: Induction of morphological changes in Cryptococcus neoformans H99 assessed as reduction in cell wall thickness at 4 to 8 ug/ml incubated for 24 hrs by TEM analysis; format: functional, organism-based; conditions: dose 4-8 µg/ml
[21] = Stability in human liver microsomes assessed as parent compound remaining after 30 mins; format: ADME, Microsome; conditions: read-out: Stability
[22] = Toxicity in Sprague-Dawley rat assessed as body weight gain at 500 to 1000 mg/kg, po measured after 3 days; format: organism-based; conditions: in vivo, 72 h, dose 500-1000 mg/kg, time 3 day
Candida albicans [23] = test: Synergistic antifungal activity against Candida albicans ATCC SC5314 assessed as FICI in presence of AmB after 48 hrs by checker board assay; format: functional, organism-based
Cryptococcus neoformans [24] = test: Fungicidal activity against Cryptococcus neoformans H99 at 8 times of MIC after 4 hrs by time-kill kinetics assay; format: functional, organism-based
[25] = test system: Trichophyton mentagrophytes; test: Fungicidal activity against Trichophyton mentagrophytes KCCM60449 at 4 ug/ml by time-kill kinetics assay; format: functional, organism-based; conditions: dose 4.0 µg/ml
[26] = Stability in rat liver microsomes assessed as parent compound remaining after 30 mins; format: ADME, Microsome; conditions: liver microsomes, read-out: Stability
Cryptococcus neoformans [27] = test: Additive antifungal activity against Cryptococcus neoformans H99 assessed as FICI in presence of 5-FC after 48 hrs by checker board assay; format: functional, organism-based

For `CCCC(N)C(=O)NCCc1ccc(-c2ccc(Cl)c(Cl)c2)cc1.Cl` (racemic), the Activity (Cryptococcus neoformans [1]) was “Active”, the Activity (Trichophyton rubrum [2]) was “Active” and the AUC(0-t) [3] was 30500 ng·h/mL. The MIC (Nakaseomyces glabratus) was 4 µg/mL, the Activity (Trichophyton rubrum [4]) was 73.02% and the Activity (Aspergillus fumigatus) was “Active”. For the same compound, the Activity (Cryptococcus neoformans [5]) was “Active”, the Activity (Cryptococcus neoformans [6]) was “Active” and the Activity (Trichophyton rubrum [7]) was 24.68%. The pIC50 [8] was 4.40, the Activity (HEK293) was “Non-Toxic” and the Activity ([Candida] auris [9]) was “Active”. The Cmax [10] was 97.3 ng/mL, the Activity (Cryptococcus neoformans [11]) was “Active” and the Activity (Candida albicans [12]) was “Active”. For the same compound, the Cmax [13] was 296 ng/mL, the Activity (Cryptococcus neoformans [14]) was “Active” and the Cmax [15] was 190 ng/mL. The Ratio [16] was 2.67, the “inhibition (INH)” value (Cytochrome P450 2C9) was 77.3% and the inhibition at 10 µM (CYP1A2) was 81.1%. For the same compound, the remaining at 1 h [17] was 61.1%, the Activity ([Candida] auris [18]) was “Active” and the Activity (HaCaT) was “Non-Toxic”. For the same compound, the Activity (Cryptococcus neoformans [19]) was “Active”, the Activity (Cryptococcus neoformans [20]) was “Active” and the remaining at 0.5 h [21] was 90%. The Activity [22] was “Non-Toxic”, the Activity (Candida albicans [23]) was “Active” and the Activity (Cryptococcus neoformans [24]) was “Active”. For the same compound, the Activity [25] was “Active”, the remaining at 0.5 h [26] was 72.3% and the Activity (Cryptococcus neoformans [27]) was “Active”.
